Laboratory results: patent publication US9453837B2, “Grafted dinuclear metal complexes, and use thereof as cellular microparticle sensors” (CENTRE NATIONAL DE LA RECHERCHE SCIENTIFIQUE (CNRS), priority 2011, dated 2016)

Test system: microparticles derived from the activation of the cell culture of HMEC1 human microvascular endothelial cells by TNF-α
Test: Colorimetric assay of cellular microparticles by immobilisation of the complex on a microtiter plate (sensitivity study)
Assay type: binding
Settings: complex immobilised on polyglutaraldehyde-activated PVC plate; anti-CD105 antibody, peroxidase secondary antibody, ABTS; FIG. 1
Protocol: a) Reagents: • Glutaraldehyde 25% • Ethanolamine 16.5 M • Bicarbonate buffer (Na Bic), at pH 9.5, 1 M, to be made only by titration of a solution of NaH2CO3 (pH 8.3) with a solution of Na2CO3 at pH 11, 6. • HEPES buffer, 10 mM pH 7.4; 0.15 M NaCl • (hBPMP/Zinc)-C6H2, 150 μM
b) Protocols: • Polymerisation of glutaraldehyde: • 50 ml of a solution of 2.5% glutaraldehyde is prepared in 0.1 M Na Bic, then the mixture is placed in a sealed vial at 37° C. for 2 hours. • Adsorption of polyglutaraldehyde on the surface of polyvinyl chloride: • A microtiter plate with 96 wells is used. • 100 μL of 2.5% glutaraldehyde is deposited in each well and left for 2 hours at 22° C. The polyglutaraldehyde is removed and the surface is rinsed 3 times with water. • Immobilisation of the complex [(Zn2)(BPMP-C6H2)(μ-OH)].(ClO4)2 • The complex in 0.1 M HEPES, pH 8.2 is immobilised on the surface of the polyvinyl chloride plate for 24 hours at +22° C.: • The free aldehyde groups are saturated with 0.3 M ethanolamine by incubating the surface with this solution for 2 hours at 22° C., then the ethanolamine is eliminated by washing with water and then washing 3 times in 10 mM HEPES at pH 7.4, 0.15 M NaCl. […]
The reading is performed by means of a spectrophotometer. […]

**Q.** For “[μ-[6-amino-N-(3,5-bis((bis(2-pyridylmethyl)amino)methyl)-4-hydroxybenzyl)hexanamide]]-μ-hydroxo, dizinc, diperchlorate [Example 4]”, which “signal (initial velocity Vi of peroxidase substrate degradation) based on the quantity of microparticles” value is on record?
**A.** specific dose-response
